Data from US9670155B2, “Pyrrolidine derivatives as oxytocin/vasopressin V1a receptors antagonists” (ObsEva S.A., priority 2013, dated 2017).

Tests used:
[1] = test system: spontaneous uterine contractions; assay: Inhibition of spontaneous uterine contractions in anesthetized late-term pregnant rat; type: in vivo; conditions: oral route, 10, 30 or 60 mg/kg
Text: Late-term pregnant (certified at days 19-21 of pregnancy) Sprague Dawley CD (SD) BR female rats (Charles River, Calco, Italy), weighing 350-400 g were anesthetized with urethane (1.05 g/kg, i.p.) and placed on a homeothermic operating table. A midline incision at the hypogastrium level was made, one pregnant uterine horn exposed and its tubal end (near the ovary) was closed by a ligature with surgical silk. Corresponding to the fetus close to the ovary, the uterine-horn wall was incised taking care not to injure the adjacent placenta and PE240 tubing with a latex balloon (9 mm length when empty, capacity 0.1 mL; Radnoti, Monrovia, Calif., USA) on the top was inserted into the lumen and secured to the uterine wall with surgical silk. After filling the internal cavity of the latex balloon with 0.1 mL of sterile physiological saline solution, the catheter was connected to an amplifying/recording system (MacLab, ADInstruments Pty Ltd, Castle Hill, Australia) via a P231D Gould-Statham pressure transducer. […] After the surgical preparation, a 30-min stabilization period was observed and then the effects of increasing doses of compounds of the present invention (given as 10-min i.v. infusion, bolus i.v. or p.o.) were evaluated by measuring the resulting uterine contractions. For the i.v. administration (infusion or bolus) the uterine contractile activity was quantified by calculating the AUC during the 10-min injection period. The percent variation of the AUC values relative to the spontaneous uterine response observed after each compound administration was calculated in comparison to the value recorded before the first dose-administration (basal value). The effect of test compounds of the present invention was evaluated by comparing pre- and post-treatment luminal uterine pressure values. […] Statistical differences between treatment groups at each time-point were determined by using one-way ANOVA followed by Tukey test. […] Contractions were continuously recorded and area-under-the-curve (AUC) integrated over 10-min time intervals.

[2] = Isomeric interconversion in oral and intravenous dose formulations (HPLC); type: physicochemical; conditions: oral (Labrasol:water 1:1) and intravenous (NP3S) dose formulations, pre- and post-dose
[3] = Qualitative solubility/crystallisation tests on 15 mg scale; type: physicochemical
[4] = nominal 30 mg/kg
Description: The animals used in this study were Sprague-Dawley, Crl: CD®BR albino rats. All animals were supplied by Charles River UK Ltd (Margate, Kent, UK). Animals were in the weight range 200-260 g and were approximately 2 months old. Rats were given a unique identity number and were identified by unique tail markings plus cage location.
The dose groups were as follows: 4 female were given an oral dose and 4 female were given an intravenous dose.
Dose formulations were prepared in an appropriate matrix; intravenous doses were prepared in NP3S, whilst oral doses were prepared in Labrasol:water (1:1 v/v).

CO/N=C1\C[C@@H](CO)N(C(=O)c2ccc(-c3ccccc3C)cc2)C1 [(3E,5S)-5-(hydroxymethyl)-1-[(2′-methyl-1,1′-biphenyl-4-yl)carbonyl]pyrrolidin-3-one O-methyloxime, reference compound]
inhibition of uterine contraction (in words) ([1]; any time during the 170-180 minutes observation): no inhibition of uterine contraction

CO/N=C1/C[C@@H](CO)N(C(=O)c2ccc(-c3ccccc3C)cc2)C1 [(3Z,5S)-5-(hydroxymethyl)-1-[(2′-methyl-1,1′-biphenyl-4-yl)carbonyl]pyrrolidin-3-one O-methyloxime]
Uterine contractions inhibition ([1]; 5 to 15 min after administration): 15% | Uterine contractions inhibition ([1]; 170-180 minutes after administration): 42% | interconversion to E-isomer during dose preparation or administration [2]: no detectable interconversion | Dissolves in: ([3]; solvent DIPE, hot): 40 vol | Dissolves in: ([3]; solvent IPA, hot): 4 vol | Dissolves in: ([3]; solvent MIBK, hot): 4 vol | Dissolves in: ([3]; solvent THF, cold): 4 vol | Dissolves in: ([3]; solvent heptanes): insoluble in 20 vol | Dissolves in: ([3]; solvent tBuOH, hot): 6 vol | Dissolves in: ([3]; solvent toluene, cold): 2 vol

CO/N=C1/C[C@@H](CO)N(C(=O)c2ccc(-c3ccccc3C)cc2)C1 [[^14C]-(3Z,5S)-5-(hydroxymethyl)-1-[(2′-methyl-1,1′-biphenyl-4-yl)carbonyl]pyrrolidin-3-one O-methyloxime]
isomeric interconversion in vivo ([4]; female rats, oral or intravenous dose): no detectable isomeric interconversion | presence of [14C]-E-isomer in plasma ([4]; rat plasma up to 6 hours after oral or intravenous administration): no evidence
